Reference: patent publication US8772500B2, “TRPV3 modulators” (AbbVie Inc., priority 2011, dated 2014)
Like-named read-outs stand apart in the source and are kept apart here.

Experiments:
[1] = In vitro human microsomal stability assay; assay type: in vitro ADME; settings: for HUMAN MICROSOMAL STABILITY (% REMAINING AFTER 30 MINUTES): 0.5 h, 0.5 μM, pH 7.4
How it was run: (§1)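 Liver microsomes: Sprague-Dawley rat for rat assay, human for human assay; 37 °C; NADPH cofactor, also spiked into time-zero plates.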

[2] = target: T1, human TRPV3 (Homo sapiens, UniProt Q8NET8); assay: In vitro antagonism of recombinant human TRPV3 activation (FLIPR Tetra calcium assay, 2-APB as agonist); assay type: cell-based; settings: HEK293 cells stably expressing human TRPV3, 2-APB 80 μM
T1 construct: expressed in transfected cells
T1 sequence (Q8NET8 1-790): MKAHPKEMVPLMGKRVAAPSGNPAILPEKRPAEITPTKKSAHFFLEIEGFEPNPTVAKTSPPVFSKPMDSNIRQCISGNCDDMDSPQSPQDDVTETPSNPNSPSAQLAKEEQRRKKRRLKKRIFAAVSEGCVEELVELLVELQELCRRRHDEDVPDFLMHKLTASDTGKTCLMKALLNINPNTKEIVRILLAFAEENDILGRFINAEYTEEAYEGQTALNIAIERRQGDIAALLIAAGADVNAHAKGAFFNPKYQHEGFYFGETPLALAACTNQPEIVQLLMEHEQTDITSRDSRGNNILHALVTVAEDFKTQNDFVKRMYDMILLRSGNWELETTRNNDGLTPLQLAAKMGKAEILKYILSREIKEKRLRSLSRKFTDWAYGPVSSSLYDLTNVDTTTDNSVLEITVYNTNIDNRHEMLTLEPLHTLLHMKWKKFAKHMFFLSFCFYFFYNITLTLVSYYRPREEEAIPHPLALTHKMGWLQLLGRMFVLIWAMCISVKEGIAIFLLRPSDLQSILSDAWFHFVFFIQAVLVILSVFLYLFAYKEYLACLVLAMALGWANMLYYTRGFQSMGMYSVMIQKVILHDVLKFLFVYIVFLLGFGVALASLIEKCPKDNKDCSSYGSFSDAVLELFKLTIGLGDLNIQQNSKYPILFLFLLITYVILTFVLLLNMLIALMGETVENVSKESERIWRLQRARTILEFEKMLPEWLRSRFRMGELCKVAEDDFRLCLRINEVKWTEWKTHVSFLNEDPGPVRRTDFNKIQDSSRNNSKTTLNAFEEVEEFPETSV
Experimental: Test compounds were evaluated for ability to antagonize the activation of recombinant human TRPV3 using FLIPR® Tetra cellular screening. Specifically, on the day prior to the experiment recombinant HEK293 cells that stably express human TRPV3 were removed from tissue culture flasks and plated in growth medium at 20,000 cells/well into Poly-d-lysine coated black/clear 384-well Plate (Corning, 3845) using a Multidrop® dispenser (ThermoScientific, Waltham, Mass.). Prior to the start of the assay, the medium was removed by aspiration, and cells were loaded with 30 μL no-wash FLIPR® Calcium-4 dye (λEX=470-495 nm, λEM=515-575 nm; Molecular Devices, Sunnyvale, Calif.). The cells were then incubated for 90-120 minutes in the dark prior to addition of the test compound.
A double-addition protocol was used. The test compound (i.e., the TRPV3 antagonist) was added at the 10 second time point, followed by the addition of a TRPV3 agonist three minutes later. Each test compound evaluated was first dissolved in DMSO to prepare a 10 mM stock solution. A solution (5×) of the test compound was then prepared in DPBS (Dulbecco's Phosphate Buffered Saline) and 10 μL of that solution was added to the cells at a delivery rate of 40 μL/sec. The TRPV3 agonist used to activate human TRPV3 expressed by the […] was 2-aminoethoxy-diphenyl borate (2-APB; Tocris Cookson, Ellisville, Mo.) at 80 μM. Final assay volume was 50 μL. Total length of an experimental run was 10 minutes.
Changes in fluorescence were measured over time using the FLIPR® instrument. The intensity of the fluorescence was captured and digitally transferred to an interfaced computer. The maximum response minus minimum response was calculated and expressed as the percentage of the maximum 2-APB response in the absence of antagonist. The concentration of 2-APB corresponds to its EC80.
Table 1 reports the IC50 values measured for the test compounds as human TRPV3 antagonists. […] Actual measured values are shown parenthetically after the reported range. In most cases, the values reported are average values from at least two runs (i.e., n≧2).

[3] = In vitro rat microsomal stability assay; assay type: in vitro ADME, rat (Sprague-Dawley); settings: for RAT MICROSOMAL STABILITY (% REMAINING AFTER 30 MINUTES): Sprague-Dawley, 0.5 h, 0.5 μM, pH 7.4
How it was run: as §1

[4] = range class, read-out: IC50 (reported range)
[5] = mostly average of n≧2, read-out: IC50 (actual measured value, shown parenthetically)
[6] = 0.5 μM substrate, 0.25 mg/mL microsomal protein, pH 7.4, 37° C., NADPH, 30 minutes

| Compound | HUMAN MICROSOMAL STABILITY (% REMAINING AFTER 30 MINUTES) [1] | IC50 [2, 4] | RAT MICROSOMAL STABILITY (% REMAINING AFTER 30 MINUTES) [3] | IC50 [2, 5] | HUMAN […] (% REMAINING AFTER 30 MINUTES) [1, 6] | RAT […] (% REMAINING AFTER 30 MINUTES) [3, 6] |
| --- | --- | --- | --- | --- | --- | --- |
| CC1(O)CC(c2ccc(C(F)(F)F)cc2)([C@H](O)c2ccccn2)C1 (stereo in doubt) [Example 233, trans-3-[(S)-hydroxy(pyridin-2-yl)methyl]-1-methyl-3-[4-(trifluoromethyl)-phenyl]cyclobutanol] | – | 5.1 to 20 µM | – | – | >85% | 67% |
| OC(c1ccccn1)C1(c2ccccc2F)CCC1 (centres unmarked) [Example 1, [1-(2-fluorophenyl)cyclobutyl](pyridin-2-yl)methanol] | 0.38% | 1.1 to 5 µM | 0.48% | – | – | – |
| OC(c1ccccn1)C1(c2cccc(F)c2)CCC1 (centres unmarked) [Example 2, [1-(3-fluorophenyl)cyclobutyl](pyridin-2-yl)methanol] | 17% | 0.05 to 0.5 µM | 0.64% | – | – | – |
| OC(c1ccccn1)C1(c2ccc(F)cc2)CCC1 (centres unmarked) [Example 3, [1-(4-fluorophenyl)cyclobutyl](pyridin-2-yl)methanol] | 28% | 0.501 to 1 µM | 3.8% | – | – | – |
| OC(c1ccccn1)C1(c2ccc(F)c(F)c2)CCC1 (centres unmarked) [Example 4, [1-(3,4-difluorophenyl)cyclobutyl](pyridin-2-yl)methanol] | 19% | 0.05 to 0.5 µM | 4.2% | – | – | – |
| OC(c1ccccn1)C1(c2ccccc2C(F)(F)F)CCC1 (centres unmarked) [Example 5, pyridin-2-yl{1-[2-(trifluoromethyl)phenyl]cyclobutyl}methanol] | 0.27% | 5.1 to 20 µM | 0.06% | – | – | – |
| OC(c1ccccn1)C1(c2cccc(C(F)(F)F)c2)CCC1 (centres unmarked) [Example 6, pyridin-2-yl{1-[3-(trifluoromethyl)phenyl]cyclobutyl}methanol] | 1.2% | 0.05 to 0.5 µM | 2.3% | – | – | – |

Now from value to molecule, other results behind:

| HUMAN MICROSOMAL STABILITY (% REMAINING AFTER 30 MINUTES) [1] | IC50 [2, 4] | RAT MICROSOMAL STABILITY (% REMAINING AFTER 30 MINUTES) [3] | IC50 [2, 5] | Compound | HUMAN […] (% REMAINING AFTER 30 MINUTES) [1, 6] | RAT […] (% REMAINING AFTER 30 MINUTES) [3, 6] |
| --- | --- | --- | --- | --- | --- | --- |
| >85% | 0.501 to 1 µM | 69% | – | OC1CC(c2ccc(Cl)c(Cl)c2)(C(O)c2ccccn2)C1 (single isomer, unassigned) [Example 119] | – | – |
| 78% | 0.501 to 1 µM | 72% | – | CC1(O)CC(c2ccc(OC(F)(F)F)cc2)(C(O)c2ccccn2)C1 (single isomer, unassigned) [Example 134] | – | – |
| 80% | 1.1 to 5 µM | 67% | – | CC1(O)CC(c2ccc(C(F)(F)F)cc2)(C(O)c2ccccn2)C1 (single isomer, unassigned) [Example 232] | – | – |
| 54% | 0.501 to 1 µM | 41% | – | CC1(O)CC(c2cccc(C(F)(F)F)c2)(C(O)c2ccccn2)C1 (single isomer, unassigned) [Example 236] | – | – |
| 40% | 5.1 to 20 µM | 12% | 11.2 µM | OC(c1ccccn1)C1(C2=CCCOC2)CCC1 (single isomer, unassigned) [Example 269, [1-(5,6-dihydro-2H-pyran-3-yl)cyclobutyl](pyridin-2-yl)methanol] | – | – |
| 17% | 1.1 to 5 µM | 0.48% | 3.94 µM | OC(c1ccccn1)C1(C2=COCCC2)CCC1 (single isomer, unassigned) [Example 270, [1-(3,4-dihydro-2H-pyran-5-yl)cyclobutyl](pyridine-2-yl)methanol] | – | – |
| >85% | > 20 µM | 71% | – | OC1CC(c2cc(C(F)(F)F)ccn2)(C(O)c2ccccn2)C1 (single isomer, unassigned) [Example 290] | – | – |
